Assay results from patent US20230373985A1 (Origenis Gmbh, priority 2020, published 2023).

Columns and labels:
[1] = molecular target: T1, wt human NUAK1, full length (Homo sapiens, UniProt O60285); assay: TR-FRET LanthaScreen Eu Kinase Binding Assay, NUAK1; conditions: read-out: IC50, Activity Toward NUAK1
T1 construct: 8 nM wt human NUAK1, full length (ThermoFisher/USA); purchased ThermoFisher
T1 sequence (O60285 1-661): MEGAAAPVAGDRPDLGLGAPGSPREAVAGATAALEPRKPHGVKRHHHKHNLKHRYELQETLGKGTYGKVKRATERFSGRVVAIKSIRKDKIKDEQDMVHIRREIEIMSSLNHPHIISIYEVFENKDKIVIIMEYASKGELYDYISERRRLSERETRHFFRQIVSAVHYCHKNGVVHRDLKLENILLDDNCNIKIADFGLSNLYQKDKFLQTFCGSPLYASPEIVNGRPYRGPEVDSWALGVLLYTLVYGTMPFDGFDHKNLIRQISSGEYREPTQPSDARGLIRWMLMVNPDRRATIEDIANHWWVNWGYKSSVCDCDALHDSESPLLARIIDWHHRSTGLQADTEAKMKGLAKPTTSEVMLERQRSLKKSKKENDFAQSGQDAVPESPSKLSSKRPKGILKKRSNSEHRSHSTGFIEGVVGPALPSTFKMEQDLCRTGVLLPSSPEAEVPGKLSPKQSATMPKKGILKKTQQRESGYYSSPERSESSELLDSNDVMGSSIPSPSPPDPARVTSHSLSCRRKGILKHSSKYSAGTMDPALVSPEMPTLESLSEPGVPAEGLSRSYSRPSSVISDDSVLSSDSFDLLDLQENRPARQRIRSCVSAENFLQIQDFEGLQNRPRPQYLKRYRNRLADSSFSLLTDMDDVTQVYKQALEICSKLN
Method in brief: (§1)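 Competitive tracer-displacement TR-FRET, 1 h at room temperature, read as emission ratio. LRRK2 (wt or G2019S catalytic domain) at 5 nM with 2 nM Eu-anti-GST and 10 nM Tracer 236; full-length NUAK1 at 8 nM with 2 nM Eu-anti-His and 5 nM Tracer 236, all final in Kinase Buffer A.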

[2] = molecular target: T2, wt human TYK2, catalytic site (Homo sapiens, UniProt P29597); assay: HTRF KinEASE assay, TYK2; assay type: biochemical; conditions: 1 μM ATP; read-out: IC50, Activity Toward TYK2
T2 construct: wt human TYK2, catalytic site; purchased SignalChem
T2 sequence (P29597 897-1176 limits assumed): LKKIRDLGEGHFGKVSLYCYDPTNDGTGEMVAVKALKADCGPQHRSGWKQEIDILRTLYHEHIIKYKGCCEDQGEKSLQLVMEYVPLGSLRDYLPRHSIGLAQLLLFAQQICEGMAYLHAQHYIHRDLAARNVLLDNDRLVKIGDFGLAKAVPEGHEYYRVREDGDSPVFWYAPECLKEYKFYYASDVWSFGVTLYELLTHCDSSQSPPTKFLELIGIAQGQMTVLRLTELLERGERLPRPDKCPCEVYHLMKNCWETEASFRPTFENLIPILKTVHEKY
Method in brief: (§2)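 HTRF KinEASE-TK readout with 1 μM biotinylated TK substrate in 1× kinase buffer, ≥30 min at room temperature, then antibody/streptavidin-XL665 detection for 60 min. TYK2 at 2 nM with 1 μM ATP; JAK2 at 1 nM with 100 μM ATP. Analysis uses emission ratios.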

[3] = molecular target: T3, wt human JAK1, catalytic site (Homo sapiens, UniProt P23458); assay: HTRF KinEASE assay, JAK1; assay type: biochemical; conditions: 2.5 μM ATP; read-out: IC50, Activity Toward JAK1
T3 construct: wt human JAK1, catalytic site; purchased ThermoFisher
Method in brief: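 Two-step HTRF KinEASE assay: compound, kinase/biotinylated TK substrate and ATP were incubated at least 30 min at room temperature. Antibody plus streptavidin-XL665 was then added and plates were read after 60 min. Inhibition was derived from emission ratios according to the kit protocol.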

[4] = molecular target: T4, wt human LRRK2, catalytic site (Homo sapiens, UniProt Q5S007); assay: TR-FRET LanthaScreen Eu Kinase Binding Assay, LRRK2 wt; conditions: one range stated for wt and G2019, read-out: IC50, Activity Toward LRRK2(Wt)
T4 construct: 5 nM wt human LRRK2, catalytic site; purchased ThermoFisher
Method in brief: as §1

[5] = molecular target: T5, G2019S human LRRK2, catalytic site (Homo sapiens, UniProt Q5S007, G2019S); assay: TR-FRET LanthaScreen Eu Kinase Binding Assay, LRRK2 G2019S; conditions: LRRK2(G2019); one range stated for wt and G2019; read-out: IC50, Activity Toward LRRK2(G2019)
T5 construct: G2019S human LRRK2, catalytic site; purchased ThermoFisher
Method in brief: as §1

[6] = molecular target: T6, wt human JAK2, catalytic site (Homo sapiens, UniProt O60674); assay: HTRF KinEASE assay, JAK2; assay type: biochemical; conditions: assay format not given (Z'-LYTE or HTRF KinEASE); read-out: IC50, Activity Toward JAK2
T6 construct: wt human JAK2, catalytic site; purchased SignalChem
Method in brief: as §2

T6 sequence (O60674 849-1124 limits assumed): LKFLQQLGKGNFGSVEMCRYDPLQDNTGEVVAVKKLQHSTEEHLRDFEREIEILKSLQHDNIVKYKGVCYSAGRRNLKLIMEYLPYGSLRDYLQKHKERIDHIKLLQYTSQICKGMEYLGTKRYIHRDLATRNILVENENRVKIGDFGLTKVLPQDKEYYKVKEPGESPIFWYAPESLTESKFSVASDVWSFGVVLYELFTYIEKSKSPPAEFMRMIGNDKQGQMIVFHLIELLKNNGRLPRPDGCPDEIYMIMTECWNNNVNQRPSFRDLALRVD
T4 sequence (Q5S007 970-2527 limits assumed): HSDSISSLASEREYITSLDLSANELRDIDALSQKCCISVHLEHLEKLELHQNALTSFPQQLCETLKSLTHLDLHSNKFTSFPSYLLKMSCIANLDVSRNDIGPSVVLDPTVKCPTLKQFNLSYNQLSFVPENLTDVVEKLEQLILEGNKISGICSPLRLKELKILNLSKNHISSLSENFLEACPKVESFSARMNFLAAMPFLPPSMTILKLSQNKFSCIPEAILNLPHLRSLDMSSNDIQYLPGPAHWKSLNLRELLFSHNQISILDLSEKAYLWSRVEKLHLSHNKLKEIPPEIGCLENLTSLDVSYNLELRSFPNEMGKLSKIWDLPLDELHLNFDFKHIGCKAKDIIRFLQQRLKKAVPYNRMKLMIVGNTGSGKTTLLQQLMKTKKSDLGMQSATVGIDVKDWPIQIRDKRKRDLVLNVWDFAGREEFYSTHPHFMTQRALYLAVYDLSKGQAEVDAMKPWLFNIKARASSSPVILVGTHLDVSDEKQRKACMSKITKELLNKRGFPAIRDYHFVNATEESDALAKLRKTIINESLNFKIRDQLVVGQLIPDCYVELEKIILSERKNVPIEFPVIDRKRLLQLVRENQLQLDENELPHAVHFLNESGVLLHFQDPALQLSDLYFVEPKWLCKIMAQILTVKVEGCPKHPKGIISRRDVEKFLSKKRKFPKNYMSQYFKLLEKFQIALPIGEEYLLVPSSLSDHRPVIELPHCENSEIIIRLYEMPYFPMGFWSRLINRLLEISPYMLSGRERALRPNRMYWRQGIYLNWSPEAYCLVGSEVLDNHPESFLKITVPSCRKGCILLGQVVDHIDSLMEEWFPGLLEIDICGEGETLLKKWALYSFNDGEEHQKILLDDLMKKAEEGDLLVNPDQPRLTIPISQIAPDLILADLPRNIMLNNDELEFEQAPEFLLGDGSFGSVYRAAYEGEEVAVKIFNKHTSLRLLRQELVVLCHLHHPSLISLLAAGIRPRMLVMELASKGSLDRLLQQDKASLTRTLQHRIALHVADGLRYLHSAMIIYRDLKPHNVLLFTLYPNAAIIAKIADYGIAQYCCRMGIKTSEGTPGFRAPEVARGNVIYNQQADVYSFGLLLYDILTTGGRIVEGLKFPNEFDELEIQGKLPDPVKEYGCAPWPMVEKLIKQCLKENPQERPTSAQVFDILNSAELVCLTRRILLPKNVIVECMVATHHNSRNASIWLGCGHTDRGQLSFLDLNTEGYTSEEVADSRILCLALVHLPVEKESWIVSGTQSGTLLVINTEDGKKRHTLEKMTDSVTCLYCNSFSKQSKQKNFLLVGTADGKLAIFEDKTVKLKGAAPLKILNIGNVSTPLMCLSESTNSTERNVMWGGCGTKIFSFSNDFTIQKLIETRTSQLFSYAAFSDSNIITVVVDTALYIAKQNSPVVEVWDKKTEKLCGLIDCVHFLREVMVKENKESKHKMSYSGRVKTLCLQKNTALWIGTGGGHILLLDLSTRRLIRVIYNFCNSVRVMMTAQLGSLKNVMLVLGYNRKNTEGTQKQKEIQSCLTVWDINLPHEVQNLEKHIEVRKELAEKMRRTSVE
T5 sequence (Q5S007 970-2527 G2019S limits assumed): as the sequence (Q5S007 970-2527 limits assumed) above, with G1050S counted along it
T3 sequence (P23458 875-1153 limits assumed): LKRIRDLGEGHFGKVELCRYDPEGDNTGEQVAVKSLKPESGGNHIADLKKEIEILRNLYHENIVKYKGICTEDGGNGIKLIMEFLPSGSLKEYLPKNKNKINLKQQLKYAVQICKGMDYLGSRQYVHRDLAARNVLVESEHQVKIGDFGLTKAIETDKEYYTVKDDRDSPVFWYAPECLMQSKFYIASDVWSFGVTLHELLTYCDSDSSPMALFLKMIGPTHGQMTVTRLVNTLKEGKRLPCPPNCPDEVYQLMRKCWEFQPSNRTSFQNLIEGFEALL

Structure (SMILES)	IC50 [1] [nM]	IC50 [2] [nM]	IC50 [3] [nM]	IC50 [4] [nM]	IC50 [5] [nM]	IC50 [6] [nM]
CCn1ccnc1-c1ccc(Nc2cn(-c3c(Cl)cccc3Cl)nc2C(N)=O)cc1 [compound 229, 1-(2,6-dichlorophenyl)-4-((4-(1-ethyl-1H-imidazol-2-yl)phenyl)amino)-1H-pyrazole-3-carboxamide]	100 to 1000	10 to 100	< 10	100 to 1000	100 to 1000	100 to 1000
NC(=O)c1nn(-c2c(Cl)cccc2Cl)cc1Nc1ccc(-c2nnc3ccccn23)cc1 [compound 333, 4-((4-([1,2,4]triazolo[4,3-a]pyridin-3-yl)phenyl)amino)-1-(2,6-dichlorophenyl)-1H-pyrazole-3-carboxamide]	100 to 1000	< 10	10 to 100	100 to 1000	100 to 1000	100 to 1000
NC(=O)c1nn(-c2c(Cl)ccc(F)c2Cl)cc1Nc1ccc(C(=O)N2CCOCC2)cc1 [compound 416, 1-(2,6-dichloro-3-fluorophenyl)-4-((4-(morpholine-4-carbonyl)phenyl)amino)-1H-pyrazole-3-carboxamide]	100 to 1000	< 10	10 to 100	100 to 1000	100 to 1000	100 to 1000
N#Cc1cccc(F)c1-n1cc(Nc2ccc(C(=O)N3CCS(=O)(=O)CC3)cc2)c(C(N)=O)n1 [compound 452, 1-(2-cyano-6-fluorophenyl)-4-((4-(1,1-dioxidothiomorpholine-4-carbonyl)phenyl)amino)-1H-pyrazole-3-carboxamide]	100 to 1000	< 10	< 10	100 to 1000	100 to 1000	100 to 1000
N#Cc1cccc(F)c1-n1cc(Nc2ccc(C(=O)N3CCOCC3)cc2)c(C(N)=O)n1 [compound 454, 1-(2-cyano-6-fluorophenyl)-4-((4-(morpholine-4-carbonyl)phenyl)amino)-1H-pyrazole-3-carboxamide]	100 to 1000	< 10	10 to 100	100 to 1000	100 to 1000	100 to 1000
